Assay results from US20100305143A1, “PYRROLOPYRIMIDINE COMPOUNDS” (VERNALIS (R & D) LTD., priority 2007, published 2010).

These compounds were tested against T1, human adenosine A2B receptors (Homo sapiens, UniProt P29275) (assay: FLIPR calcium flux assay in cells expressing human adenosine A2B receptors). Conditions: expressed human adenosine A2B receptors in mammalian cell lines, from dose response curves, read-out: Activity (IC50 activity range).
T1 construct: expressed in transfected cells
T1 sequence (P29275 1-332): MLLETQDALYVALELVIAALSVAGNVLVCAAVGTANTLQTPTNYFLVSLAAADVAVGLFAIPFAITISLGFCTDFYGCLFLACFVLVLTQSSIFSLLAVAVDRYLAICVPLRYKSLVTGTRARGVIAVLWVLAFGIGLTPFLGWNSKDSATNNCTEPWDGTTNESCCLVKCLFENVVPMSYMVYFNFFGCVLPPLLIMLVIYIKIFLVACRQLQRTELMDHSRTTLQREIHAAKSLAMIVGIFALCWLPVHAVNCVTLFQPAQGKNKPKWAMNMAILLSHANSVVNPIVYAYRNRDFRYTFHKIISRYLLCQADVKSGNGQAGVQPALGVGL
Type: cell-based
Description: The use of a Fluorometric Imaging Plate Reader (FLIPR) to measure calcium flux in Adenosine-receptor expressing cells is a well-established technique. In this assay calcium flux is triggered by receptor activation and measured through the fluorescence of an incorporated calcium-sensitive dye. The potencies shown were determined using expressed human adenosine A2B receptors in mammalian cell lines. Selectivity values were obtained by using mammalian cell lines expressing the human adenosine A1, A2A and A3 receptors. Compound potency was determined from dose response curves and are reported as IC50 values.

First: Cn1ccc2c(C(=O)c3cccs3)nc(NCc3cccnc3)nc21 [Example 6, {7-Methyl-2-[(pyridin-3-ylmethyl)-amino]-7H-pyrrolo[2,3d]pyrimidin-4-yl}-thiophen-2-yl-methanone]
Second: CCCn1ccc2c(C(=O)c3cccs3)nc(NCc3cccnc3)nc21 [Example 21, {7-Propyl-2-[(pyridin-3-ylmethyl)-amino]-7H-pyrrolo[2,3-d]pyrimidin-4-yl}-thiophen-2-yl-methanone]
The IC50 of the first is lower: < 0.5 µM for the first, > 0.5 µM for the second. The first is the more potent here.

Compared with `CC(Nc1nc(C(=O)c2cccs2)c2ccn(C)c2n1)c1cccnc1` (centres unmarked) [Example 7, [7-Methyl-2-(1-pyridin-3-yl-ethylamino)-7H-pyrrolo[2,3-d]pyrimidin-4-yl]-thiophen-2-yl-methanone], `O=C(c1cccs1)c1nc(NCc2cccnc2)nc2c1ccn2CC1CC1` [Example 20, {7-Cyclopropylmethyl-2-[(pyridin-3-ylmethyl)-amino]-7H-pyrrolo[2,3-d]pyrimidin-4-yl}-thiophen-2-yl-methanone] is higher in IC50: < 0.5 µM for the first, > 0.5 µM for the second.

Going from `Cc1ccc(C(=O)c2nc(NCc3cccnc3)nc3c2ccn3C)s1` [Example 8, {7-Methyl-2-[(pyridin-3-ylmethyl)-amino]-7H-pyrrolo[2,3-d]pyrimidin-4-yl}-(5-methyl-thiophen-2-yl)-methanone] to `Cc1ccc(C(=O)c2nc(NCc3ccncc3)nc3c2ccn3C)s1` [Example 10, {7-Methyl-2-[(pyridin-4-ylmethyl)-amino]-7H-pyrrolo[2,3-d]pyrimidin-4-yl}-(5-methyl-thiophen-2-yl)-methanone], the IC50 rises from < 0.5 µM to > 0.5 µM. The first is the more potent here.

First: Cc1ccc(C(=O)c2nc(NCc3ccccn3)nc3c2ccn3C)s1 [Example 9, {7-Methyl-2-[(pyridin-2-ylmethyl)-amino]-7H-pyrrolo[2,3-d]pyrimidin-4-yl}-(5-methyl-thiophen-2-yl)-methanone]
Second: O=C(c1cccs1)c1nc(NCc2ccccn2)nc2[nH]ccc12 [Example 14, {2-[(Pyridin-2-ylmethyl)-amino]-7H-pyrrolo[2,3-d]pyrimidin-4-yl}-thiophen-2-yl-methanone]
The IC50 of the first is lower: < 0.5 µM for the first, > 0.5 µM for the second. The first is the more potent here.

Going from `O=C(c1cccs1)c1nc(Cl)nc2[nH]ccc12` [Example 13, (2-Chloro-7H-pyrrolo[2,3-d]pyrimidin-4-yl)-thiophen-2-yl-methanone] to `Cn1c(Br)cc2c(C(=O)c3cccs3)nc(Cl)nc21` [Example 35, (6-Bromo-2-chloro-7-methyl-7H-pyrrolo[2,3-d]pyrimidin-4-yl)-thiophen-2-yl-methanone], the IC50 falls from > 0.5 µM to < 0.5 µM. The second is the more potent here.

`O=C(c1cccs1)c1nc(Cl)nc2c1ccn2Cc1ccccc1` [Example 17, (7-Benzyl-2-chloro-7H-pyrrolo[2,3-d]pyrimidin-4-yl)-thiophen-2-yl-methanone] and `O=C(c1cccs1)c1nc(NCc2cccnc2)nc2c1ccn2Cc1ccccc1` [Example 18, {7-Benzyl-2-[(pyridin-3-ylmethyl)-amino]-7H-pyrrolo[2,3-d]pyrimidin-4-yl}-thiophen-2-yl-methanone] cannot be ordered by IC50: > 0.5 µM for the first, > 0.5 µM for the second.

`CCCCCn1ccc2c(C(=O)c3cccs3)nc(NCc3cccnc3)nc21` [Example 19, {7-Pentyl-2-[(pyridin-3-ylmethyl)-amino]-7H-pyrrolo[2,3-d]pyrimidin-4-yl}-thiophen-2-yl-methanone] and `Cn1c(Cl)cc2c(C(=O)c3cccs3)nc(NCc3cccnc3)nc21` [Example 40, {6-Chloro-7-methyl-2-[(pyridin-3-ylmethyl)-amino]-7H-pyrrolo[2,3-d]pyrimidin-4-yl}-thiophen-2-yl-methanone] cannot be ordered by IC50: > 0.5 µM for the first, > 0.5 µM for the second.

`Cn1cc(Br)c2c(C(=O)c3cccs3)nc(NCc3cccnc3)nc21` [Example 25, {5-Bromo-7-methyl-2-[(pyridin-3-ylmethyl)-amino]-7H-pyrrolo[2,3-d]pyrimidin-4-yl}-thiophen-2-yl-methanone] and `Cn1cc(-c2ccccc2)c2c(C(=O)c3cccs3)nc(NCc3cccnc3)nc21` [Example 26, {7-Methyl-5-phenyl-2-[(pyridin-3-ylmethyl)-amino]-7H-pyrrolo[2,3-d]pyrimidin-4-yl}-thiophen-2-yl-methanone] cannot be ordered by IC50: > 0.5 µM for the first, > 0.5 µM for the second.

`Cn1cc(-c2ccc(S(C)(=O)=O)cc2)c2c(C(=O)c3cccs3)nc(NCc3cccnc3)nc21` [Example 27, {5-(4-Methanesulfonyl-phenyl)-7-methyl-2-[(pyridin-3-ylmethyl)-amino]-7H-pyrrolo[2,3-d]pyrimidin-4-yl}-thiophen-2-yl-methanone] and `COc1ccc(-c2cn(C)c3nc(NCc4cccnc4)nc(C(=O)c4cccs4)c23)cc1` [Example 28, {5-(4-Methoxy-phenyl)-7-methyl-2-[(pyridin-3-ylmethyl)-amino]-7H-pyrrolo[2,3-d]pyrimidin-4-yl}-thiophen-2-yl-methanone] cannot be ordered by IC50: > 0.5 µM for the first, > 0.5 µM for the second.

Compared with `COc1ccccc1-c1cn(C)c2nc(NCc3cccnc3)nc(C(=O)c3cccs3)c12` [Example 29, {5-(2-Methoxy-phenyl)-7-methyl-2-[(pyridin-3-ylmethyl)-amino]-7H-pyrrolo[2,3-d]pyrimidin-4-yl}-thiophen-2-yl-methanone], `Cn1c(Cl)cc2c(C(=O)c3cccs3)nc(Cl)nc21` [Example 39, (2,6-Dichloro-7-methyl-7H-pyrrolo[2,3-d]pyrimidin-4-yl)-thiophen-2-yl-methanone] is lower in IC50: > 0.5 µM for the first, < 0.5 µM for the second.
